This is an account of results in patent US20240076293A1, “Compositions and Methods for Inhibiting Fibrosis, Inflammation and Cancer” (Georgia Tech Research Corporation, priority 2020, published 2024).

What all share (type): cell-based
The nature of series [1]: Anti-proliferation IC50, MRC-5. The conditions noted are these: human, MRC-5 cells; Table 1, compounds of formula I; NI = no inhibition up to 500 μM.
The test system of series [2] is A549. Kind of series: Anti-proliferation IC50, A549. The conditions noted are these: Homo sapiens.
Series [3] deals with Hep-G2. Kind of series: Anti-proliferation IC50, Hep-G2. The note with it: Homo sapiens, HepG2.
The test system of series [4] is VERO. Description: Anti-proliferation IC50, VERO. The conditions noted are these: Chlorocebus sabaeus.
The mark [5] stands for this setting: Table 1, compounds of formula I, NI = no inhibition up to 500 μM, read-out: A549 (IC50).
Where [6] appears, read: Table 1, compounds of formula I, NI = no inhibition up to 500 μM, read-out: Hep-G2 (IC50).
The mark [7] stands for this setting: Table 1, compounds of formula I, NI = no inhibition up to 500 μM, read-out: VERO (IC50).

Where two headings read alike, the source gives them in different places. A value given as a limit tells only on which side of the number the result lay.

With `CC[C@H]1OC(=O)[C@@H](C)[C@@H](O[C@@H]2C[C@](C)(OC)[C@H](O)[C@@H](C)O2)[C@@H](C)[C@@H](O[C@H]2O[C@@H](C)C[C@@H](N(C)C)[C@@H]2OC(=O)/C=C/C=C/c2ccc3c(c2)OCO3)[C@](C)(OC)C[C@@H](C)C(=O)[C@H](C)[C@H](O)[C@]1(C)O`, the IC50 was 7.8 ± 0.7 µM in series [1], 16.9 ± 0.7 µM in series [2] (setting [5]), 5.6 ± 0.1 µM in series [3] (setting [6]) and 21 ± 2.3 µM in series [4] (setting [7]).

With `CC[C@@H]1OC(=O)[C@@H](C)[C@H](O[C@H]2C[C@@](C)(OC)[C@@H](O)[C@H](C)O2)[C@@H](C)[C@H](O[C@H]2O[C@@H](C)C[C@@H](N(C)C(=O)/C=C/C(=O)OC)[C@@H]2O)C(C)(O)C[C@H](C)CN(C)[C@@H](C)[C@H](O)[C@@]1(C)O` (stereo partly shown), the IC50 in series [2] (Table 2, compounds of formula II, read-out: Anti-proliferation IC50 A549) turned out to be 214 µM; in series [3] (Table 2, compounds of formula II, read-out: Anti-proliferation IC50 Hep-G2), 126 µM; in series [4] (Table 2, compounds of formula II, read-out: Anti-proliferation IC50 VERO), 212 µM.

On to `CC[C@H]1OC(=O)[C@H](C)[C@@H](O[C@H]2C[C@@](C)(OC)[C@@H](O)[C@H](C)O2)[C@H](C)[C@@H](O[C@@H]2O[C@H](C)C[C@H](N(C)C)[C@H]2O)[C@](C)(O)C[C@@H](C)CN(C)[C@H](C)[C@@H](O)[C@]1(C)O` [Azithromycin (AZM), Azithromycin, reference compound], for which the IC50 in series [1] was found to be 127 ± 1 µM; in series [2] (setting [5]) it was 204 ± 4.5 µM; in series [3] (setting [6]), 85.3 ± 0.9 µM; in series [4] (setting [7]) it was 222 ± 18.1 µM.

`CC[C@H]1OC(=O)[C@H](C)[C@@H](O[C@H]2C[C@@](C)(OC)[C@@H](O)[C@H](C)O2)[C@H](C)[C@@H](O[C@@H]2O[C@H](C)C[C@H](N(C)C)[C@H]2O)[C@](C)(OC)C[C@@H](C)C(=O)[C@H](C)[C@@H](O)[C@]1(C)O` [Clarithromycin (CLM), Clarithromycin, reference compound]: the IC50 in series [1] was 138.1 ± 1.1 µM; in series [2] (setting [5]) it was above 500 µM; in series [3] (setting [6]), 130 µM; in series [4] (setting [7]), above 500 µM.

For the compound `CCC1OC(=O)[C@H](C)[C@H](OC2C[C@@](C)(OC)[C@@H](O)[C@H](C)O2)[C@H](C)[C@@H](OC2O[C@H](C)C[C@H](N(C)Cc3ccc(-n4cc(C)ccc4=O)cc3)[C@H]2O)[C@@](C)(OC)C[C@@H](C)C(=O)[C@H](C)[C@@H](O)[C@]1(C)O` (stereo partly shown) [Compound 10a], the IC50 in series [1], in series [2] (setting [5]), in series [3] (setting [6]) and in series [4] (setting [7]) was above 500 µM throughout.

Take `CCC1OC(=O)[C@H](C)[C@H](OC2C[C@@](C)(OC)[C@@H](O)[C@H](C)O2)[C@H](C)[C@@H](OC2O[C@H](C)C[C@H](N(C)Cc3cn(Cc4ccc(-n5cc(C)ccc5=O)cc4)nn3)[C@H]2O)[C@@](C)(OC)C[C@@H](C)C(=O)[C@H](C)[C@@H](O)[C@]1(C)O` (stereo partly shown) [Compound 10b]: the IC50 in series [1] worked out at 102.6 ± 0.8 µM; in series [2] (setting [5]), 118 ± 28.4 µM; in series [3] (setting [6]), 116 ± 16 µM; in series [4] (setting [7]), 153 ± 19 µM.

On to `CCC1OC(=O)[C@H](C)[C@H](OC2C[C@@](C)(OC)[C@@H](O)[C@H](C)O2)[C@H](C)[C@@H](OC2O[C@H](C)C[C@H](N(C)Cc3ccc(-c4cn(Cc5ccc(-n6cc(C)ccc6=O)cc5)nn4)cc3)[C@H]2O)[C@@](C)(OC)C[C@@H](C)C(=O)[C@H](C)[C@@H](O)[C@]1(C)O` (stereo partly shown) [Compound 10c], for which the IC50 in series [1] is 12.3 ± 1.8 µM; in series [2] (setting [5]) it was 11.1 ± 2.7 µM; in series [3] (setting [6]), 20.3 ± 1 µM; in series [4] (setting [7]) it was 5.1 ± 0.2 µM.

Take `CCC1OC(=O)[C@H](C)[C@H](OC2C[C@@](C)(OC)[C@@H](O)[C@H](C)O2)[C@H](C)[C@@H](OC2O[C@H](C)C[C@H](N(C)CCc3ccc(-n4cc(C)ccc4=O)cc3)[C@H]2O)[C@@](C)(OC)C[C@@H](C)C(=O)[C@H](C)[C@@H](O)[C@]1(C)O` (stereo partly shown) [Compound 12a]: the IC50 in series [1] was 119 µM; in series [2] (setting [5]), above 500 µM; in series [3] (setting [6]) it was above 500 µM; in series [4] (setting [7]), above 500 µM.
